Data: patent US9932331B2, “Phenyl tetrahydroisoquinoline compound substituted with heteroaryl” (TAISHO PHARMACEUTICAL CO., LTD, priority 2014, dated 2018)
pIC50: −log10 of the molar value. Structures can show the parent of a compound that is named as a salt.

Target: T1, human NHE3 (Homo sapiens, UniProt P48764)
T1 sequence (P48764 26-834): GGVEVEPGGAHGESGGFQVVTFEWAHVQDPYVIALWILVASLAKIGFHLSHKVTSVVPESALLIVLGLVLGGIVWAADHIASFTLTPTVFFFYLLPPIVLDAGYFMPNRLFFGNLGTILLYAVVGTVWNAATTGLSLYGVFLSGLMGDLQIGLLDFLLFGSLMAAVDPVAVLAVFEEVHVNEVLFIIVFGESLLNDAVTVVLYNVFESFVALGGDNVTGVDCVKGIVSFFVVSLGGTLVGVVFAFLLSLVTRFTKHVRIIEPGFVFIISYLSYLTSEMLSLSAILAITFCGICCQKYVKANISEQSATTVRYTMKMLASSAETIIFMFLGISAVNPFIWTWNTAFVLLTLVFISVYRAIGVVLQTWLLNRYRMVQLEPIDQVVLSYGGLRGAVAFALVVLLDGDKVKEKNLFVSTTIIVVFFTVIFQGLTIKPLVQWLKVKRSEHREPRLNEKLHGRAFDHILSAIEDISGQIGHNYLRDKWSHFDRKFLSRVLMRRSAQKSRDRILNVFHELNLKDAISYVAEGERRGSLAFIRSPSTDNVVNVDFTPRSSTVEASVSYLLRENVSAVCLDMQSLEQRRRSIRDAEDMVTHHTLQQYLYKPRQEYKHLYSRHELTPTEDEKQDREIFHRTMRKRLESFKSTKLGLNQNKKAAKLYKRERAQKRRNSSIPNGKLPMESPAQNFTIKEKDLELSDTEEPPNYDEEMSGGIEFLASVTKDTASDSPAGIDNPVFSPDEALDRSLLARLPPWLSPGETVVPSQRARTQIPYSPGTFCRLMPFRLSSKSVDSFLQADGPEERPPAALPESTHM
Test: NHE3 inhibition test (recovery of intracellular pH in cell line stably expressing human NHE3)
Format: cell-based
Conditions: OK cells deficient in endogenous NHE stably expressing human NHE3; BCECF fluorescence, initial rate of pH recovery; read-out: human NHE3 inhibitory activity IC50
Description: (1) Preparation of Cell Line Deficient in Endogenous NHE
The cell line deficient in endogenous NHE was prepared according to the method of Jacques Pouyssegur et al. (Proc. Natl. Acad. Sci. USA. 1984, Vol. 81, 4833-4837) using opossum kidney (OK) cells (ATCC).
(2) Preparation of Expression Plasmid and Cell Line Stably Expressing Human NHE3
The expression plasmid was constructed by inserting a human NHE3 (SLC9A3, Accession No. NM_004174) cDNA sequence (GeneCopoeia, Inc.) into a pcDNA3.2/V5-DEST vector (Life Technologies Corp.).
The OK cells deficient in endogenous NHE were transfected with the constructed human NHE3 expression plasmid to prepare stably expressing cells. The transfection was carried out by electroporation using a Nucleofector 2b device (Lonza Group Ltd.). A stably expressing cell line was selected in medium supplemented with 500 μg/mL Geneticin (Life Technologies Corp.) and isolated.
NHE3 activity measurement method using cell: The activity was determined by using the NHE3-mediated recovery of intracellular pH occurring after intracellular acidification, as an index. The intracellular pH was measured by a partial modification of the pH-sensitive fluorescent indicator method reported by Tsien et al. (Proc. Natl. Acad. Sci. USA., 1984, 81, 7436-7440).
The cell line stably expressing human NHE3 was inoculated on a poly-D-lysine-coated 96-well plate (Greiner Bio-one) and cultured overnight. […] Then, Hank's balanced salt buffer solution containing 0.25 μM BCECF-AM (Dojindo Laboratories) was added to the cells, which were then incubated at 37° C. for 30 minutes. […] The cells thus incubated in the NH4Cl buffer solution were washed with NH4Cl-free buffer solution (133.8 mM choline chloride, […], 5 mM glucose, 4.7 mM KCl, 1.25 mM CaCl2, 1.25 mM MgCl2, 0.97 mM K2HPO4, 0.23 mM KH2PO4, pH 7.4) to decrease the intracellular pH. After the washing step, 70 μL of a test compound solution prepared with the NH4Cl-free buffer solution was added to the cells, and 70 iμL of sodium ion-containing buffer solution (133.8 mM NaCl, 10 mM HEPES, 5 mM glucose, 4.7 mM KCl, 1.25 mM CaCl2, 1.25 mM MgCl2, 0.97 mM Na2HPO4, 0.23 mM NaH2PO4, pH 7.4) was added thereto in a measurement system FDSS6000 (Hamamatsu Photonics K.K.) to start the recovery of pH. The recovery of intracellular pH was monitored using BCECF fluorescence (excitation wavelength: 480 nm, fluorescence wavelength: 520 to 560 nm), and the initial rate of the pH recovery was plotted. The recovery of pH without test compound was defined as the maximum recovery, and the test compound concentration necessary to inhibit 50% of the maximum recovery was calculated as an IC50 value.

| Compound | pIC50 |
| --- | --- |
| CN1Cc2c(Cl)cc(Cl)cc2[C@H](c2cccc(-c3cnnc(NCCOCCOCCNC(=O)NCCCCNC(=O)NCCOCCOCCNc4cc(-c5cccc([C@@H]6CN(C)Cc7c(Cl)cc(Cl)cc76)c5)cnn4)c3)c2)C1 [Example 7-13, 1,1′-Butane-1,4-diylbis {3-[2-(2-(2-{2-[(5-{3-[(4S)-6,8-dichloro-2-methyl-1,2,3,4-tetrahydroisoquinolin-4-yl]phenyl}pyridazin-3-yl)amino]ethoxy}ethoxy)ethyl]urea}tetrahydrochloride] | 7.92 |
| CN1Cc2c(Cl)cc(Cl)cc2[C@H](c2cccc(-c3cc(NCCOCCOCCNC(=O)Nc4ccc(NC(=O)NCCOCCOCCNc5cc(-c6cccc([C@@H]7CN(C)Cc8c(Cl)cc(Cl)cc87)c6)ncn5)cc4)ncn3)c2)C1 [Example 7-14, 1,1′-Benzene-1,4-diylbis {3-[2-(2-{2-[(6-{3-[(4S)-6,8-dichloro-2-methyl-1,2,3,4-tetrahydroisoquinolin-4-yl]phenyl}pyrimidin-4-yl)amino]ethoxy}ethoxy)ethyl]urea} trifluoroacetate] | 7.86 |
| CN1Cc2c(Cl)cc(Cl)cc2[C@H](c2cccc(-c3ccc(NCCOCCOCCOCCNC(=O)NCCCCNC(=O)NCCOCCOCCOCCNc4ccc(-c5cccc([C@@H]6CN(C)Cc7c(Cl)cc(Cl)cc76)c5)cn4)nc3)c2)C1 [Example 7-17, 1,1′-Butane-1,4-diylbis(3-{2-[2-(2-{2-[(5-{3-[(4S)-6,8-dichloro-2-methyl-1,2,3,4-tetrahydroisoquinolin-4-yl]phenyl}pyridin-2-yl)amino]ethoxy}ethoxy)ethoxy]ethyl}urea) hydrochloride] | 8.36 |
| CN1Cc2c(Cl)cc(Cl)cc2[C@H](c2cccc(-c3cncc(NCCOCCOCCNC(=O)NCCCCNC(=O)NCCOCCOCCNc4cncc(-c5cccc([C@@H]6CN(C)Cc7c(Cl)cc(Cl)cc76)c5)n4)n3)c2)C1 [Example 7-20, 1,1′-Butane-1,4-diylbis{3-[2-(2-{2-[(6-{3-[(4S)-6,8-dichloro-2-methyl-1,2,3,4-tetrahydroisoquinolin-4-yl]phenyl}pyrazin-2-yl)amino]ethoxy}ethoxy)ethyl]urea}pentahydrochloride] | 8.12 |
| CN1Cc2c(Cl)cc(Cl)cc2[C@H](c2cccc(-c3nnc(CCOCCOCCNC(=O)NCCCCNC(=O)NCCOCCOCCc4nnc(-c5cccc([C@@H]6CN(C)Cc7c(Cl)cc(Cl)cc76)c5)[nH]4)[nH]3)c2)C1 [Example 7-21, 1,1′-Butane-1,4-diylbis[3-(2-{2-[2-(5-{3-[(4S)-6,8-dichloro-2-methyl-1,2,3,4-tetrahydroisoquinolin-4-yl]phenyl}-4H-1,2,4-triazol-3-yl)ethoxy]ethoxy}ethyl)urea]diformate] | 8.42 |
| CN1Cc2c(Cl)cc(Cl)cc2[C@H](c2cccc(-c3nnc(CCOCCOCCOCCNC(=O)NCCCCNC(=O)NCCOCCOCCOCCc4nnc(-c5cccc([C@@H]6CN(C)Cc7c(Cl)cc(Cl)cc76)c5)[nH]4)[nH]3)c2)C1 [Example 7-22, 1,1′-Butane-1,4-diylbis {3-[2-(2-{2-[2-(5-{3-[(4S)-6,8-dichloro-2-methyl-1,2,3,4-tetrahydroisoquinolin-4-yl]phenyl}-4H-1,2,4-triazol-3-yl)ethoxy]ethoxy}ethoxy)ethyl]urea} diformate] | 8.24 |
| CN1Cc2c(Cl)cc(Cl)cc2[C@H](c2cccc(-c3nnc(CCOCCOCCNC(=O)NCCCCNC(=O)NCCOCCOCCc4nnc(-c5cccc([C@@H]6CN(C)Cc7c(Cl)cc(Cl)cc76)c5)o4)o3)c2)C1 [Example 7-23, 1,1′-Butane-1,4-diylbis[3-(2-{2-[2-(5-{3-[(4S)-6,8-dichloro-2-methyl-1,2,3,4-tetrahydroisoquinolin-4-yl]phenyl}-1,3,4-oxadiazol-2-yl)ethoxy]ethoxy}ethyl)urea]tetraformate] | 8.26 |
| CN1Cc2c(Cl)cc(Cl)cc2[C@H](c2cccc(-c3cc(OCCOCCOCCOCCNC(=O)Nc4ccc(NC(=O)NCCOCCOCCOCCOc5cc(-c6cccc([C@@H]7CN(C)Cc8c(Cl)cc(Cl)cc87)c6)ncn5)cc4)ncn3)c2)C1 [Example 7-25, 1,1′-Benzene-1,4-diylbis(3-{2-[2-(2-{2-[(6-{3-[(4S)-6,8-dichloro-2-methyl-1,2,3,4-tetrahydroisoquinolin-4-yl]phenyl}pyrimidin-4-yl)oxy]ethoxy}ethoxy)ethoxy]ethyl}urea) hydrochloride] | 7.87 |
| CN1Cc2c(Cl)cc(Cl)cc2[C@H](c2cccc(-c3cn(CCOCCOCCOCCNC(=O)NCCOCCOCCNC(=O)NCCOCCOCCOCCn4cc(-c5cccc([C@@H]6CN(C)Cc7c(Cl)cc(Cl)cc76)c5)nn4)nn3)c2)C1 [Example 7-26, 1,1′-[Ethane-1,2-diylbis(oxyethane-2,1-diyl)]bis {3-[2-(2-{2-[2-(4-{3-[(4S)-6,8-dichloro-2-methyl-1,2,3,4-tetrahydroisoquinolin-4-yl]phenyl}-1H-1,2,3-triazol-1-yl)ethoxy]ethoxy}ethoxy)ethyl]urea}hydrochloride] | 8.28 |

The remaining lines, values ahead:

| pIC50 | Compound |
| --- | --- |
| 7.95 | CN1Cc2c(Cl)cc(Cl)cc2[C@H](c2cccc(-c3cn(CCOCCOCCOCCNC(=O)NCCCCCCNC(=O)NCCOCCOCCOCCn4cc(-c5cccc([C@@H]6CN(C)Cc7c(Cl)cc(Cl)cc76)c5)nn4)nn3)c2)C1 [Example 7-27, 1,1′-Hexane-1,6-diylbis {3-[2-(2-{2-[2-(4-{3-[(4S)-6,8-dichloro-2-methyl-1,2,3,4-tetrahydroisoquinolin-4-yl]phenyl}-1H-1,2,3-triazol-1-yl)ethoxy]ethoxy}ethoxy)ethyl]urea}hydrochloride] |
| 8.14 | CN1Cc2c(Cl)cc(Cl)cc2[C@H](c2cccc(-c3cn(CCOCCOCCOCCNC(=O)NCCCCCCCCNC(=O)NCCOCCOCCOCCn4cc(-c5cccc([C@@H]6CN(C)Cc7c(Cl)cc(Cl)cc76)c5)nn4)nn3)c2)C1 [Example 7-28, 1,1′-Octane-1,8-diylbis {3-[2-(2-{2-[2-(4-{3-[(4S)-6,8-dichloro-2-methyl-1,2,3,4-tetrahydroisoquinolin-4-yl]phenyl}-1H-1,2,3-triazol-1-yl)ethoxy]ethoxy}ethoxy)ethyl]urea}hydrochloride] |
| 7.91 | CN1Cc2c(Cl)cc(Cl)cc2[C@H](c2cccc(-c3cc(OCCOCCOCCOCCNC(=O)NCCCCNC(=O)NCCOCCOCCOCCOc4cc(-c5cccc([C@@H]6CN(C)Cc7c(Cl)cc(Cl)cc76)c5)ncn4)ncn3)c2)C1 [Example 7-31, 1,1′-Butane-1,4-diylbis(3-{2-[2-(2-{2-[(6-{3-[(4S)-6,8-dichloro-2-methyl-1,2,3,4-tetrahydroisoquinolin-4-yl]phenyl}pyrimidin-4-yl)oxy]ethoxy}ethoxy)ethoxy]ethyl}urea) hydrochloride] |
| 7.74 | CN1Cc2c(Cl)cc(Cl)cc2[C@H](c2cccc(-c3cnnc(NCCOCCOCCOCCNC(=O)NCCCCNC(=O)NCCOCCOCCOCCNc4cc(-c5cccc([C@@H]6CN(C)Cc7c(Cl)cc(Cl)cc76)c5)cnn4)c3)c2)C1 [Example 7-32, 1,1′-Butane-1,4-diylbis(3-{2-[2-(2-{2-[(5-{3-[(4S)-6,8-dichloro-2-methyl-1,2,3,4-tetrahydroisoquinolin-4-yl]phenyl}pyridazin-3-yl)amino]ethoxy}ethoxy)ethoxy]ethyl}urea) tetrahydrochloride] |
